Measured values taken from patent publication US5578619A, “Alkoxy-substituted dihydrobenzopyran-2-sulfonimides” (priority 1995, dated 1996).

Assays:
LTB4 Receptor = target: T1, LTB4 Receptor (Homo sapiens, UniProt Q15722); test: LTB4 Receptor Binding Assay; settings: human neutrophils, 0.6×10^-9 M (3H)LTB4, 0° C., 45 minutes
T1 construct: Neutrophils were purified from venous blood of normal human donors; endogenous in cells; host or cells: human neutrophils from venous blood of normal donors (purity >95%)
Protocol: (§1) Neutrophils were purified from venous blood of normal human donors using standard techniques of dextran sedimentation, centrifugation on Ficoll-paque® (Pharmacia) or Histopaque® sterile solution (Sigma) and hypotonic lysis of erythrocytes (Boyum, A., Isolation of Leukocytes From Human Blood: Further Observations. Scand. J. Lab. Clin. Invest., 21 (Suppl. 97): 31, 1968).
Neutrophils (4- 6×10^6) in 1 ml Hanks' balanced salt solution (HBSS) containing 10 mM HEPES buffer, pH 7.4 and 20 mM nordihydroguaiaretic acid were incubated with 0.6×10^-9 M (^3 H) LTB4 in the presence or absence of test compounds. The incubation was carried out at 0° C. for 45 minutes and terminated by adding 5 ml of ice-cold HBSS followed by rapid filtration of the incubation mixture under vacuum through GF/C glass fiber filters. The filters were further washed with 10 ml HBSS and radioactivity was determined. Specific binding was defined as the difference between total binding and nonspecific binding which was not displaced by 10^-7 M unlabeled LTB4. All data refer to specific binding.

[1] = test system: Human neutrophils (LTB4 chemotaxis); test: Modified Boyden Chamber Chemotaxis (LTB4-induced neutrophil chemotaxis); assay type: cell-based; settings: 3×10^-8 M LTB4, 40-90 minute incubation at 37° C.
Source text: as §1, with “1968). The purity of isolated neutrophils was >95%.” for “1968).”
Human neutrophils were isolated from citrated peripheral blood using standard techniques of dextran sedimentation, followed by centrifugation on Histopaque® sterile solution (Sigma) or Ficoll-paque® (Pharmacia) and hypotonic lysis of erythrocytes. A final cell suspension of 3.4×10^6 neutrophils/ml of HEPES-buffered Hanks' balanced salt solution (HBSS, pH 7.3) was added to the upper well (0.8 ml) of a modified Boyden chamber (blind well). The lower well (0.2 ml), separated by a polycarbonate membrane (Nucleopore Corp.), contained HBSS or 3×10^-8 M LTB4 in the presence or absence of test compound. Following a 40-90 minute incubation at 37° C. in 5% CO2 -95% air, cells from the lower well were lysed and nuclei counted in a Model S-Plus-IV Coulter Counter. The number of neutrophils migrating into the lower chamber in the absence of chemoattractant was subtracted from the number of cells migrating in the presence of a chemoattractant. Inhibition of chemotaxis by test compounds was expressed as percent inhibition relative to uninhibited control.

T1 sequence (Q15722 whole entry): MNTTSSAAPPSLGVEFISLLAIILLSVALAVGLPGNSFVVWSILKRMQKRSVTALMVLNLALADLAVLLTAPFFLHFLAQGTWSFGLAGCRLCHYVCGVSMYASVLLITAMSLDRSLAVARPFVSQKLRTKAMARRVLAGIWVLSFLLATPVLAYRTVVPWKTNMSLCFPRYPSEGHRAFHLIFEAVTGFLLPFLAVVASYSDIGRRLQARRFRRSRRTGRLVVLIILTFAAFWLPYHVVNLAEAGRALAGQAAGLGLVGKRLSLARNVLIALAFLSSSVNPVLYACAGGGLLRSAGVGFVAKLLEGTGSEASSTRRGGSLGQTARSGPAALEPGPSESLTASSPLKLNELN

| IC50 (LTB4 Receptor) [nM] | IC50 [1] [nM] | SMILES |
| --- | --- | --- |
| 5.5 | 53 | CCCc1c(OCCCOc2ccc(-c3cscn3)c(OC)c2CC2CC2)ccc2c1OC(C(=O)NS(=O)(=O)c1ccccc1)CC2 (centres unmarked) [Example 9, Benzo sulfonimide of 7-[3-[2-(Cyclopropylmethyl)-3-methoxy-4-(4-thiazolyl)phenoxy]propoxy]-3,4-dihydro-8-propyl-2H-1-benzopyran-2-carboxylic acid] |
| 4.3 | 66 | CCCc1c(OCCCOc2ccc(-c3cscn3)c(OC)c2CC2CC2)ccc2c1OC(CCC(=O)NS(=O)(=O)c1ccccc1)CC2 (centres unmarked) [Example 15, Benzo sulfonimide of 3,4-Dihydro-7-[3-[3-methoxy-2-cycloproplymethyl-4-(4-thiazolyl)phenoxy]propoxy]-8-propyl-2H-1-benzopyran-2-propionic acid] |
| – | 1050 | CCCc1c(OCCCOc2ccc(C(C)=O)c(OC)c2CCC)ccc2c1OC(C(=O)O)CC2 (centres unmarked) [Example 1(b), 7-[3-(4-acetyl-3-methoxy-2-propylphenoxy)propoxy]-3,4-dihydro-8-propyl-2H-1-benzopyran-2-carboxylic acid, reference compound] |
